Test results as given in PMC9848300, “Discovery of novel enasidenib analogues targeting inhibition of mutant isocitrate dehydrogenase 2 as antileukaemic agents” (Journal of Enzyme Inhibition and Medicinal Chemistry, 2023).

Experiments:
EKVX = assay: NCI 60 antitumor screening (single dose / five doses); type: cell-based; conditions: Homo sapiens; for inhibition at 10 µM: EKVX (non-small cell lung cancer), single dose 10 μM, read-out: Growth inhibition percentage (GI %)
SR = assay: as above; type: cell-based; conditions: Homo sapiens; SR (leukaemia), single dose 10 μM; read-out: Growth inhibition percentage (GI %)
SW-620 = assay: as above; type: cell-based, human; conditions: Homo sapiens; for inhibition at 10 µM: SW-620 (colon cancer), single dose 10 μM, read-out: Growth inhibition percentage (GI %)
NCI/ADR-RES = assay: as above; type: cell-based; conditions: Homo sapiens; for inhibition at 10 µM: NCI/ADR-RES (ovarian cancer), single dose 10 μM, read-out: Growth inhibition percentage (GI %)
RPMI-8226 = assay: as above; type: cell-based; conditions: Homo sapiens; for inhibition at 10 µM: RPMI-8226 (leukaemia), single dose 10 μM, read-out: Growth inhibition percentage (GI %)
NCI-H522 = assay: NCI 60 antitumor screening (single dose); type: cell-based; conditions: Homo sapiens; NCI-H522 (non-small cell lung cancer), single dose 10 μM; read-out: Growth inhibition percentage (GI %)
Outline: (§1)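 Test compound added at 10 μM to each of 60 human cancer lines from nine tumour types; growth measured per NCI protocol in triplicate; percent growth converted to inhibition (100 − G%).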

SNB-19 = assay: NCI 60 antitumor screening (single dose); type: cell-based; conditions: Homo sapiens; SNB-19 (CNS cancer), single dose 10 μM; read-out: Growth inhibition percentage (GI %)
Outline: (§2)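 Values are GI% (100 − G%) from the NCI 60-line single-dose screen, compound at 10 μM.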

HCC-2998 = assay: NCI 60 antitumor screening (single dose); type: cell-based; conditions: Homo sapiens; HCC-2998 (colon cancer), single dose 10 μM; read-out: Growth inhibition percentage (GI %)
Outline: as §1

TK-10 = assay: NCI 60 antitumor screening (single dose); type: cell-based; conditions: Homo sapiens; TK-10 (renal cancer), single dose 10 μM; read-out: Growth inhibition percentage (GI %)
Outline: as §2

OVCAR-4 = assay: NCI 60 antitumor screening (single dose); type: cell-based; conditions: Homo sapiens; OVCAR-4 (ovarian cancer), single dose 10 μM; read-out: Growth inhibition percentage (GI %)
Outline: as §2

NCI-H226 = assay: NCI 60 antitumor screening (single dose); type: cell-based; conditions: Homo sapiens; NCI-H226 (non-small cell lung cancer), single dose 10 μM; read-out: Growth inhibition percentage (GI %)
Outline: as §2

OVCAR-8 = assay: NCI 60 antitumor screening (single dose); type: cell-based; conditions: Homo sapiens; OVCAR-8 (ovarian cancer), single dose 10 μM; read-out: Growth inhibition percentage (GI %)
Outline: as §2

OVCAR-3 = assay: NCI 60 antitumor screening (single dose); type: cell-based; conditions: Homo sapiens; OVCAR-3 (ovarian cancer), single dose 10 μM; read-out: Growth inhibition percentage (GI %)
Outline: as §2

SK-OV-3 = assay: NCI 60 antitumor screening (single dose); type: cell-based; conditions: Homo sapiens; SK-OV-3 (ovarian cancer), single dose 10 μM; read-out: Growth inhibition percentage (GI %)
Outline: as §1

U251 = assay: NCI 60 antitumor screening (single dose); type: cell-based; conditions: Homo sapiens, U-251; U251 (CNS cancer), single dose 10 μM; read-out: Growth inhibition percentage (GI %)
Outline: as §1

NCI-H322M = assay: NCI 60 antitumor screening (single dose); type: cell-based; conditions: Homo sapiens; NCI-H322M (non-small cell lung cancer), single dose 10 μM; read-out: Growth inhibition percentage (GI %)
Outline: as §2

KM 12 = assay: NCI 60 antitumor screening (single dose); type: cell-based; conditions: Homo sapiens, KM12; KM 12 (colon cancer), single dose 10 μM; read-out: Growth inhibition percentage (GI %)
Outline: as §2

OVCAR-5 = assay: NCI 60 antitumor screening (single dose); type: cell-based; conditions: Homo sapiens; OVCAR-5 (ovarian cancer), single dose 10 μM; read-out: Growth inhibition percentage (GI %)
Outline: as §1

CAKI-1 = assay: NCI 60 antitumor screening (single dose); type: cell-based; conditions: Homo sapiens; CAKI-1 (renal cancer), single dose 10 μM; read-out: Growth inhibition percentage (GI %)
Outline: as §2

PC-3 = assay: NCI 60 antitumor screening (single dose); type: cell-based; conditions: Homo sapiens; PC-3 (prostate cancer), single dose 10 μM; read-out: Growth inhibition percentage (GI %)
Outline: as §2

A549/ATCC = assay: NCI 60 antitumor screening (single dose); type: cell-based; conditions: Homo sapiens; A549/ATCC (non-small cell lung cancer), single dose 10 μM; read-out: Growth inhibition percentage (GI %)
Outline: as §2

NCI-H23 = assay: NCI 60 antitumor screening (single dose); type: cell-based; conditions: Homo sapiens; NCI-H23 (non-small cell lung cancer), single dose 10 μM; read-out: Growth inhibition percentage (GI %)
Outline: as §1

HS 578T = assay: NCI 60 antitumor screening (single dose); type: cell-based; conditions: Homo sapiens; HS 578T (breast cancer), single dose 10 μM; read-out: Growth inhibition percentage (GI %)
Outline: as §2

NCI-H460 = assay: NCI 60 antitumor screening (single dose); type: cell-based; conditions: Homo sapiens; NCI-H460 (non-small cell lung cancer), single dose 10 μM; read-out: Growth inhibition percentage (GI %)
Outline: as §1

M14 = assay: NCI 60 antitumor screening (single dose); type: cell-based; conditions: Homo sapiens; M14 (melanoma), single dose 10 μM; read-out: Growth inhibition percentage (GI %)
Outline: as §2

HOP-62 = assay: NCI 60 antitumor screening (single dose); type: cell-based; conditions: Homo sapiens; HOP-62 (non-small cell lung cancer), single dose 10 μM; read-out: Growth inhibition percentage (GI %)
Outline: as §1

MALME-3M = assay: NCI 60 antitumor screening (single dose / five doses); type: cell-based; conditions: Homo sapiens; for inhibition at 10 µM: MALME-3M (melanoma), single dose 10 μM, read-out: Growth inhibition percentage (GI %)

| Structure (SMILES) | inhibition at 10 µM (EKVX) [%] | inhibition at 10 µM (SR) [%] | inhibition at 10 µM (SW-620) [%] | inhibition at 10 µM (NCI/ADR-RES) [%] | inhibition at 10 µM (RPMI-8226) [%] | inhibition at 10 µM (NCI-H522) [%] | inhibition at 10 µM (SNB-19) [%] | inhibition at 10 µM (HCC-2998) [%] | inhibition at 10 µM (TK-10) [%] | inhibition at 10 µM (OVCAR-4) [%] | inhibition at 10 µM (NCI-H226) [%] | inhibition at 10 µM (OVCAR-8) [%] | inhibition at 10 µM (OVCAR-3) [%] | inhibition at 10 µM (SK-OV-3) [%] | inhibition at 10 µM (U251) [%] | inhibition at 10 µM (NCI-H322M) [%] | inhibition at 10 µM (KM 12) [%] | inhibition at 10 µM (OVCAR-5) [%] | inhibition at 10 µM (CAKI-1) [%] | inhibition at 10 µM (PC-3) [%] | further results |
| --- | --- | --- | --- | --- | --- | --- | --- | --- | --- | --- | --- | --- | --- | --- | --- | --- | --- | --- | --- | --- | --- |
| Oc1ccc(/C=N/Nc2nc(N/N=C/c3ccc(O)c(O)c3)nc(N3CCCCC3)n2)cc1O [compound 7j, 4-[(1e)-(2-{4-[(E)-2-[(3,4-Dihydroxyphenyl)methylidene]hydrazin-1-yl]-6-(piperidin-1-yl)-1,3,5-triazin-2-yl}hydrazin-1-ylidene)methyl]benzene-1,2-diol] | 1.58 | 25.9 | 6.35 | -3.16 | -7.6 | 6.61 | 13.7 | -5 | -3.52 | -0.74 | 4.47 | 1.94 | 5.01 | -24.8 | 9.07 | -2.3 | -0.29 | -13.1 | 13.4 | 9.42 | inhibition at 10 µM (A549/ATCC): -0.07%; inhibition at 10 µM (NCI-H23): 0.5%; inhibition at 10 µM (HS 578T): -6.08%; inhibition at 10 µM (NCI-H460): 0.77%; inhibition at 10 µM (M14): -3.18%; inhibition at 10 µM (HOP-62): -10.5%; inhibition at 10 µM (MALME-3M): 6.88% |
| C(=N\Nc1nc(N/N=C/c2ccc3c(c2)OCO3)nc(N2CCCCC2)n1)/c1ccc2c(c1)OCO2 [compound 7k, 2,4-Bis[(E)-2-(2H-1,3-Benzodioxol-5-ylmethylidene)hydrazin-1-yl]-6-(piperidin-1-yl)-1,3,5-triazine] | 6.27 | 99.9 | 17.6 | 14.5 | 43.8 | 8.07 | 19.7 | 16.2 | -21 | -9.55 | -0.61 | 9.89 | -5.21 | -39.5 | 18.6 | 1.53 | 13.8 | -18.2 | 1.07 | 26.4 | inhibition at 10 µM (A549/ATCC): 8.56%; inhibition at 10 µM (NCI-H23): -1.44%; inhibition at 10 µM (HS 578T): -4.09%; inhibition at 10 µM (NCI-H460): 9.41%; inhibition at 10 µM (M14): 2.72%; inhibition at 10 µM (HOP-62): -22.5%; inhibition at 10 µM (MALME-3M): -20.2% |
| Fc1cccc(Cl)c1/C=N/Nc1nc(N/N=C/c2c(F)cccc2Cl)nc(N2CCCCC2)n1 [compound 7l, 2,4-Bis[(E)-2-[(2-Chloro-6-fluorophenyl)methylidene]hydrazin-1-yl]-6-(piperidin-1-yl)-1,3,5-triazine] | 86.2 | 83.9 | 82.8 | 84.8 | 96.7 | 89.6 | 74.2 | 75.7 | 72.8 | 79 | 46.1 | 74.2 | 77.3 | 60.9 | 73.2 | 64.2 | 89.2 | 72.2 | 85.9 | 81.3 | GI50 (EKVX; EKVX, five doses (0.01–100 μM), read-out: GI50): 1540 nM; GI50 (SW-620; SW-620, SW-620, five doses (0.01–100 μM), read-out: GI50): 3510 nM; GI50 (NCI/ADR-RES; NCI/ADR-RES, five doses (0.01–100 μM), read-out: GI50): 2760 nM; GI50 (RPMI-8226; RPMI-8226, five doses (0.01–100 μM), read-out: GI50): 2260 nM; inhibition at 10 µM (A549/ATCC): 78.4%; inhibition at 10 µM (NCI-H23): 55.2%; inhibition at 10 µM (HS 578T): 66.7%; inhibition at 10 µM (NCI-H460): 80.1%; inhibition at 10 µM (M14): 88.1%; inhibition at 10 µM (HOP-62): 74.1%; inhibition at 10 µM (MALME-3M): 95.8%; GI50 (MALME-3M; MALME-3M, five doses (0.01–100 μM), read-out: GI50): 2210 nM |
